Laboratory results: patent US20050096360A1, “Inhibitors of semicarbazide-sensitive amine oxidase (SSAO) and VAP-1 mediated adhesion useful for treatment of diseases” (priority 2003, published 2005)
Counter-ions that a name gives are not always drawn.

What was measured:
[1] = target: T1, SSAO activity in rat aorta and lung (Rattus norvegicus, UniProt O08590); test: In vivo inhibition of SSAO after single oral dose, radioactive assay; details: 4 hrs after treatment
T1 construct: the animals were euthanized and their aortas and lungs removed and frozen in liquid nitrogen; from tissue; host or cells: aorta and lung of female Sprague Dawley rats
T1 sequence (O08590 1-763): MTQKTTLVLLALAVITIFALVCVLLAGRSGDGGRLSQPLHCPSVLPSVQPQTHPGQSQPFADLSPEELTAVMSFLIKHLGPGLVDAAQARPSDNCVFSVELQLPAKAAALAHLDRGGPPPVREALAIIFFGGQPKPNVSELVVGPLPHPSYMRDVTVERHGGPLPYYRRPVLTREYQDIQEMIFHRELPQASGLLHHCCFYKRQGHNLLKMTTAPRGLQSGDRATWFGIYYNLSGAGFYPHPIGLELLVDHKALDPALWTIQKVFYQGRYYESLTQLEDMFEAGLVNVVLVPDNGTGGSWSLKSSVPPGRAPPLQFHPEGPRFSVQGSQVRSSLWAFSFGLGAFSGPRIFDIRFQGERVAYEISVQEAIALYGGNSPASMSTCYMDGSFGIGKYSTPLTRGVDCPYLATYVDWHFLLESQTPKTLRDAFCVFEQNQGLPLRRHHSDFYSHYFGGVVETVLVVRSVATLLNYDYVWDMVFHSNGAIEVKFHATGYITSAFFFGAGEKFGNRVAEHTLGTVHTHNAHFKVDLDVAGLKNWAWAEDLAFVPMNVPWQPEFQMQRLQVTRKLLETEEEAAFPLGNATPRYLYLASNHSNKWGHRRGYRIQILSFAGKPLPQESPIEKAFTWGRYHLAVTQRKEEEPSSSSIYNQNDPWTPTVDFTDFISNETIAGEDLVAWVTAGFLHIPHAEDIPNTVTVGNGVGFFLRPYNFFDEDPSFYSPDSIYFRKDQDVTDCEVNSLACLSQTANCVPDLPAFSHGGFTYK
Procedure: In vivo inhibition of SSAO was assessed in rat aorta and lungs, two of the tissues where SSAO activity is highest. Six week old female Sprague Dawley rats were administered 0, 0.1, 1, 10 and 50 mg/kg of the compound of example 8 in 2.5 ml/kg PBS by oral gavage. Four hours after compound administration the animals were euthanized and their aortas and lungs removed and frozen in liquid nitrogen. Tissues were homogenized in 0.1 M potassium phosphate pH 7.8 buffer (30 ml/g for aorta and 20 ml/g for lung) and centrifuged at 1000×g for 15 min. Supernatants were collected and used in the radioactive assay following the protocol described by Lizcano J. M. et al. (1998) Biochem. J. 331:69. Enzymatic reactions were initiated by incubating a 200 μl aliquot of the tissue homogenate with 20 μl of 0.4 mM ^14C-labeled benzylamine substrate (6 mCi/mmol specific activity, Pharmacia) for 30 min at RT. The assay was stopped by addition of 100 μl of 2 M citric acid, the assay volume was extracted with 5 ml toluene:ethyl acetate (1:1) containing 0.6% (w/v) 2,5-diphenyloxdazole (PPO), and an aliquot of the organic layer was counted by liquid scintillation. […] These inhibitors were added to the tissue supernatant prior to addition of benzylamine.

EAE in C57BL/6 mice = test: Experimental autoimmune encephalomyelitis (EAE), MOG 35-55; type: in vivo; details: separate experiment, same protocol, FIG. 3
Procedure: SSAO/VAP-1 is expressed on the endothelium of inflamed tissues/organs including brain and spinal cord. Its ability to support lymphocyte transendothelial migration may be an important systemic function of SSAO/VAP-1 in inflammatory diseases such as multiple sclerosis and Alzheimer's disease. An analysis of the use of SSAO inhibitors to treat inflammatory disease of the central nervous system (CNS) was performed through the use of an experimental autoimmune encephalomyelitis model (EAE) in C57BL/6 mice. EAE in rodents is a well-characterized and reproducible animal model of multiple sclerosis in human (Benson J. M. et al. (2000) J. Clin. Invest. 106:1031). Multiple sclerosis is a chronic immune-mediated disease of the CNS characterized by pachy perivenular inflammatory infiltrates in areas of demyelination and axonal loss. As an animal model, EAE can be induced in mice by immunization with encephalitogenic myelin antigens in the presence of adjuvant. The pathogenesis of EAE comprises presentation of myelin antigens to T cells, migration of activated T cells to the CNS, and development of inflammation and/or demyelination upon recognition of the same antigens.
Thirty female C57BL/6 mice were immunized subcutaneously (s.c). with myelin oligodendrocyte glycoprotein 35-55 (MOG peptide 35-55) in Complete Freund Adjuvant (CFA) on day 0, followed by i.p. injections of pertussis toxin (one pertussis toxin injection on day 0, a second pertussis toxin injection on day 2). Groups of 10 mice received either the allylamine compound mofegiline (AA, 10 mg/kg/dose, twice daily for 18 consecutive days), methotrexate (2.5 mg/kg/day, every other day (Mon., Weds., Fri.) till day 18) or vehicle control (twice/day for 18 consecutive days) all-starting from one day after the immunization and all administered i.p. Then animals were monitored for body weight, signs of paralysis and death according to a 0-5 scale of scoring system as follows: 1=limp tail or waddling gait with tail tonicity; 2=waddling gait with limp tail (ataxia); 2.5=ataxia with partial limb paralysis; 3=full paralysis of one limb; 3.5=full paralysis of one limb with partial paralysis of second limb; 4=full paralysis of two limbs; 4.5=moribund; 5=death. Results are shown in FIG. 2A, FIG. 2B, and FIG. 2C. […] (p=0.04 by repeated measure analysis to assess the treatment effect. Proper polynomial transformation, with the spacing corresponding to the collection days, was applied to test the time effect). Statistically significant differences in diseases severity between the AA and vehicle-treated groups, continued even after stopping compound administration and were observed until the end of the study (d25) .

| Structure (SMILES) | ED50, in vivo inhibition of SSAO activity in aorta ([1]; rat aorta) | ED50, in vivo inhibition of SSAO activity in lung ([1]; rat lung) | development and severity of disease (EAE in C57BL/6 mice) |
| --- | --- | --- | --- |
| C=C(CNN)c1ccc(F)cc1.Cl [Example 8, N-[2-(4′-fluorophenyl)-allyl]-hydrazine Hydrochloride] | 5 mg/kg | 0.72 mg/kg |  |
| C=C(CNN)c1ccccc1 [Example 2, Hydrochloride] |  |  | clearly had a therapeutic effect |
